In patent US20100063085A1, “METHOD OF TREATING LEARNING IMPAIRMENT IN DOWN'S SYNDROME SUBJECTS” (University Court of The University of Dundee, priority 2008, published 2010) one finds remaining activity data, which are given here for three molecules.

Assay in all cases: biochemical
The target in assay [1] is T1, IKKb (Homo sapiens, UniProt O14920).
T1 sequence (O14920 1-756): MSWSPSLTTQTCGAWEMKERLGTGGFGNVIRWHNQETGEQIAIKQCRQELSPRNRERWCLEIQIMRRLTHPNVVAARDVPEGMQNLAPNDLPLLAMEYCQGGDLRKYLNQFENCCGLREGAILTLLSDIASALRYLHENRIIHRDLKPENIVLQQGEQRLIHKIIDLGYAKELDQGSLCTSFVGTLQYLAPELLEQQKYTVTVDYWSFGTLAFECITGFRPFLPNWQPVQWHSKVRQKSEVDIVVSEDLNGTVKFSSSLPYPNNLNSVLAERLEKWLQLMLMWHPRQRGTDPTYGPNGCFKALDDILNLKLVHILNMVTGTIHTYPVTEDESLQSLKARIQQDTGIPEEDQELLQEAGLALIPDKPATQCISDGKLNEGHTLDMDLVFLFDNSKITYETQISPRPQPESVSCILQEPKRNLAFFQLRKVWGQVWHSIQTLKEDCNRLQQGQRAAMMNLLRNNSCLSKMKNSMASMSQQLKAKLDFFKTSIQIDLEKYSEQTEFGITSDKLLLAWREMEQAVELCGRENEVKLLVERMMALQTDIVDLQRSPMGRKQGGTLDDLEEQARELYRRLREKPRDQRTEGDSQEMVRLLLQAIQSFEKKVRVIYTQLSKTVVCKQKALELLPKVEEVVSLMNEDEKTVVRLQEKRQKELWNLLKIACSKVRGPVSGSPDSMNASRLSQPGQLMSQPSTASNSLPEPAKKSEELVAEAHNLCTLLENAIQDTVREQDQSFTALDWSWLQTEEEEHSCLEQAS
To be noted: read-out: IKKb activity as percentage of control without inhibitor. The protocol:
(§1) All assays (25.5 μl) were carried out at room temperature (21° C.) and were linear with respect to time and enzyme concentrations under the conditions used. Assays were performed for 30 minutes except assays for LCK and PKB which were performed for 15 minutes using Multidrop Micro reagent dispensers (Thermo Electron Corporation, Waltham, Mass. 02454, USA) in a 96-well format. The concentration of […] [γ-^33P] ATP (800 cpm/pmol) in the assays was one of three concentrations (5, 20 or 50 μM) in order to be at or below Km for ATP for the enzyme. Assays were initiated with MgATP and stopped by addition of 5 μl of 0.5M orthophosphoric acid. Assays were then harvested onto P81 filterplates using a unifilter harvester (PerkinElmer, Boston, Mass. 02118, USA), with a wash buffer of 50 mM orthophosphoric acid. Filterplates were then air dried overnight. 10 μl of Microscint O was added per well prior to counting for radioactivity.
(§2) The following kinases were assayed against the substrates indicated. Aurora B was assayed against the substrate peptide […] (300 μM), ERK8 and MST-2 were both assayed against MBP (0.33 mg/ml). IKKβ was assayed against the substrate peptide […] (300 μM), JNK3 was assayed against 3 μM ATF2[19-96]. MAPKAP-K3 and PKD1 were both assayed against […] (30 μM), MARK3 was assayed against CHKtide ([…]) substrate peptide (300 μM). MNK1 and MNK2 were both assayed against eIF4E protein (0.5 mg/ml). NEK7 was assayed against […] (300 μM), PIM2 was assayed against […] (300 μM), ΔPH PKBβ-S474D was assayed against Crosstide (30 μM), PLK1 was assayed against […] (300 μM). PRK2 was assayed against Long S6 peptide, […] (30 μM), RSK2 was assayed against […] (30 μM), SRC was assayed against cdc2 peptide, […], (300 μM) and SRPK1 was assayed against peptide […] (300 μM). All enzymes were diluted in 50 mM Tris/HCl pH 7.5, 0.1 mM EGTA, 1 mg/ml BSA, 0.1% β-mercaptoethanol buffer and assayed in an incubation containing 50 mM Tris/HCl pH7.5, 0.1 mM EGTA, 0.1% β-mercaptoethanol, CAMK-1 (5-20 mU) diluted in 50 mM Tris/HCl pH 7.5, 0.1 mM EGTA, 1 mg/ml BSA, 0.1% β-mercaptoethanol is assayed against substrate peptide […] in an incubation containing 50 mM Tris/HCl pH 7.5, 0.1 mM EGTA, 0.5 mM CaCl2, 0.3 μM calmodulin, 0.1% β-mereaptoethanol, 300 μM substrate peptide, 10 mM magnesium acetate and 0.05 mM [^33P-γ-ATP] (500-1000 cpm/pmole). EF2K (5-20 mU) diluted in 50 mM Hepes pH 6.6, 0.1% β-mercaptoethanol, 1 mg/ml BSA is assayed against a substrate peptide […] in an incubation containing 50 mM Hepes pH 6.6, 0.2 mM CaCl2, 0.3 μM Calmodulin, 0.05% b-mercaptoethanol, 300 μM substrate peptide, 10 mM magnesium acetate and 0.05 mM [^33P-γ-ATP] (500-1000 cpm/pmole).

Assay [2] concerns the target T2, ERK8 (Homo sapiens, UniProt Q8TD08).
T2 sequence (Q8TD08 1-544): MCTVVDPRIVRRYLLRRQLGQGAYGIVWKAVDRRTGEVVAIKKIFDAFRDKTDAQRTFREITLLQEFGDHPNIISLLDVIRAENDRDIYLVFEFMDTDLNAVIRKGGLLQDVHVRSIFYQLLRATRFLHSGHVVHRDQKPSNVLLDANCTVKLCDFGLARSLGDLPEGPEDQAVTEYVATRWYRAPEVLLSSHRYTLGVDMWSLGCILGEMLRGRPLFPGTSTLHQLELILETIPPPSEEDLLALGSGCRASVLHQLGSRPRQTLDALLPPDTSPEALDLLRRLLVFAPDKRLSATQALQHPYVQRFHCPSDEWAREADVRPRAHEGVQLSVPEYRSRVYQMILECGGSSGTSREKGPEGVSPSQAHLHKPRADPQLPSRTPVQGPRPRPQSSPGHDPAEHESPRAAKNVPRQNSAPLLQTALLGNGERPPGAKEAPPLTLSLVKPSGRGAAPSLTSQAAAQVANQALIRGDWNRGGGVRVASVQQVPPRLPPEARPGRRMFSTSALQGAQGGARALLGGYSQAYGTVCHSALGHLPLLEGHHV
To be noted: read-out: ERK8 activity as percentage of control without inhibitor. As to the method:
as §1, §2

For assay [3], the target named is MARK3 (Homo sapiens, UniProt P27448). The conditions noted are these: read-out: MARK3 activity as percentage of control without inhibitor. As to the method: as §1, §2
Chain of MARK3 (P27448 whole entry, species assumed): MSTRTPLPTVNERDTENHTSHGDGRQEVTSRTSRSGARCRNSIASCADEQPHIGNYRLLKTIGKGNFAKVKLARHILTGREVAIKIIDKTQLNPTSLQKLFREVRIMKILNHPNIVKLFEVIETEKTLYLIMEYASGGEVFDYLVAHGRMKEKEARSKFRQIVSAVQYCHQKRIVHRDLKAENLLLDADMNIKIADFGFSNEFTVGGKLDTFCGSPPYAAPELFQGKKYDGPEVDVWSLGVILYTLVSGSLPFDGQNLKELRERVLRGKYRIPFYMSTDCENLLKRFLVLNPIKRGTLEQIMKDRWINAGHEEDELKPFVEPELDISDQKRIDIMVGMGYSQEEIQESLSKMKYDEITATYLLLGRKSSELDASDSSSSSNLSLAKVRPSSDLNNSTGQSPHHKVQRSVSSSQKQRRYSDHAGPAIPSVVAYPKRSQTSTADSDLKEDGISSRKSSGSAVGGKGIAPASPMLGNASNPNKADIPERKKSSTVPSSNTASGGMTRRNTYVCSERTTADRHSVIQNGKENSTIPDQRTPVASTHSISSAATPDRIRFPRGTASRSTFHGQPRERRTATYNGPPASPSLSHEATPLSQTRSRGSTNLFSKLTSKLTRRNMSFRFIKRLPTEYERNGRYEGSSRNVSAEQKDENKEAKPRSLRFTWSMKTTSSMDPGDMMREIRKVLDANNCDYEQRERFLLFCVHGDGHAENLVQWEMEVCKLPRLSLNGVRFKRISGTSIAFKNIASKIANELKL
Assay [4] deals with SRPK1 (Homo sapiens, UniProt Q96SB4). The conditions noted are these: read-out: SRPK1 activity as percentage of control without inhibitor. As to the method:
as §1, §2

Like-named read-outs stand apart in the source and are kept apart here.

Chain of SRPK1 (Q96SB4 whole entry, species assumed): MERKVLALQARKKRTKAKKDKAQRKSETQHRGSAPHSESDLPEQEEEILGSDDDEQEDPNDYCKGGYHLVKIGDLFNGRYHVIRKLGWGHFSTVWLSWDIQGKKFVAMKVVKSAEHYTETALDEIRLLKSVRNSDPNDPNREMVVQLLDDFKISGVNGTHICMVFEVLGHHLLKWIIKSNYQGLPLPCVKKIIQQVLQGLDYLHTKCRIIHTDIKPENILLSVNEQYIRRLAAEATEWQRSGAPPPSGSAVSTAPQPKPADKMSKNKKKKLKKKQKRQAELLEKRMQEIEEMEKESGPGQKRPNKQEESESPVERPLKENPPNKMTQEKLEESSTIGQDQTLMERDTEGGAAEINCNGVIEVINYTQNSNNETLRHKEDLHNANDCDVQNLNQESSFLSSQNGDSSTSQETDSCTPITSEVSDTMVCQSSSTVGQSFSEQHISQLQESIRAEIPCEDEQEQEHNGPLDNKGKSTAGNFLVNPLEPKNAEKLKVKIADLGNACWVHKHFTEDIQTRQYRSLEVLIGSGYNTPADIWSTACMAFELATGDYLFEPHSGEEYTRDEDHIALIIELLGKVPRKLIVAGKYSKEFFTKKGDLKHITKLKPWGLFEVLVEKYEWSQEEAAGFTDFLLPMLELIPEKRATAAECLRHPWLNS

For `COc1ccc2c(c1)[nH]c1c(C)nccc12` [Harmine], the remaining activity at 1 µM turned out to be 97% in assay [1], 25% in assay [2], 86% in assay [3] and 86% in assay [4]. Further, the remaining activity at 10 µM is 73% in assay [1], 19% in assay [2], 86% in assay [3] and 83% in assay [4].

Turning to `CC1=NCCc2c1[nH]c1cc(O)ccc21` [Harmalol], the remaining activity at 1 µM is 93% in assay [1] (inhibitor 1 μM), 41% in assay [2] (inhibitor 1 μM), 93% in assay [3] (inhibitor 1 μM) and 88% in assay [4] (inhibitor 1 μM). Moreover, the remaining activity at 10 µM stood at 69% in assay [1] (inhibitor 10 μM), 21% in assay [2] (inhibitor 10 μM), 84% in assay [3] (inhibitor 10 μM) and 72% in assay [4] (inhibitor 10 μM).

On to `COc1ccc2c3c([nH]c2c1)C(C)=NCC3` [Harmaline], for which the remaining activity at 1 µM is 78% in assay [1] (inhibitor 1 μM), 58% in assay [2] (inhibitor 1 μM), 99% in assay [3] (inhibitor 1 μM) and 104% in assay [4] (inhibitor 1 μM). Moreover, the remaining activity at 10 µM in assay [1] (inhibitor 10 μM) was determined as 82%; in assay [2] (inhibitor 10 μM), 21%; in assay [3] (inhibitor 10 μM) it was 103%; in assay [4] (inhibitor 10 μM), 97%.
